Source: ChEMBL document CHEMBL5346907, “Discovery of a novel oral type Ⅰ CDK8 inhibitor against acute myeloid leukemia” (Eur J Med Chem, 2023)

Key:
[1] = target: Macrophage colony-stimulating factor 1 receptor (Homo sapiens) (UniProt P07333); experiment: Inhibition of CSF1R (unknown origin) at 1 uM preincubated for 10 mins followed by substrate addition measured for 60 to 120 mins by HTRF assay relative to control; conditions: time 70-130 min
[2] = target: Ephrin type-A receptor 4 (Homo sapiens) (UniProt P54764); experiment: Inhibition of EPHA4 (unknown origin) at 1 uM preincubated for 10 mins followed by substrate addition measured for 60 to 120 mins by HTRF assay relative to control; conditions: time 70-130 min
[3] = target: Fibroblast growth factor receptor 1 (Homo sapiens) (UniProt P11362); experiment: Inhibition of FGFR1 (unknown origin) at 1 uM preincubated for 10 mins followed by substrate addition measured for 60 to 120 mins by HTRF assay relative to control; conditions: time 70-130 min
[4] = Cmax in Sprague-Dawley rat at 2 mg/kg, iv; type: ADME, organism-based; set-up: dose 2 mg/kg, route iv; conditions: in vivo
[5] = target: Fibroblast growth factor receptor 2 (Homo sapiens) (UniProt P21802); experiment: Inhibition of FGFR2 (unknown origin) at 1 uM preincubated for 10 mins followed by substrate addition measured for 60 to 120 mins by HTRF assay relative to control; conditions: time 70-130 min
[6] = target: Ephrin type-A receptor 5 (Homo sapiens) (UniProt P54756); experiment: Inhibition of EPHA5 (unknown origin) at 1 uM preincubated for 10 mins followed by substrate addition measured for 60 to 120 mins by HTRF assay relative to control; conditions: time 70-130 min
[7] = target: Ephrin type-A receptor 1 (Homo sapiens) (UniProt P21709); experiment: Inhibition of EPHA1 (unknown origin) at 1 uM preincubated for 10 mins followed by substrate addition measured for 60 to 120 mins by HTRF assay relative to control; conditions: time 70-130 min
[8] = target: Tyrosine-protein kinase ZAP-70 (Homo sapiens) (UniProt P43403); experiment: Inhibition of ZAP70 (unknown origin) at 1 uM preincubated for 10 mins followed by substrate addition measured for 60 to 120 mins by HTRF assay relative to control; conditions: time 70-130 min
[9] = target: NT-3 growth factor receptor (Homo sapiens) (UniProt Q16288); experiment: Inhibition of TRKC (unknown origin) at 1 uM preincubated for 10 mins followed by substrate addition measured for 60 to 120 mins by HTRF assay relative to control; conditions: time 70-130 min
[10] = target: Tyrosine-protein kinase HCK (Homo sapiens) (UniProt P08631); experiment: Inhibition of HCK (unknown origin) at 1 uM preincubated for 10 mins followed by substrate addition measured for 60 to 120 mins by HTRF assay relative to control; conditions: time 70-130 min
[11] = Cmax in Sprague-Dawley rat at 10 mg/kg, po; type: ADME, organism-based; set-up: dose 10 mg/kg, route po; conditions: in vivo
[12] = target: Hepatocyte growth factor receptor (Homo sapiens) (UniProt P08581); experiment: Inhibition of MET (unknown origin) at 1 uM preincubated for 10 mins followed by substrate addition measured for 60 to 120 mins by HTRF assay relative to control; conditions: time 70-130 min
[13] = target: Tyrosine-protein kinase Fgr (Homo sapiens) (UniProt P09769); experiment: Inhibition of FGR (unknown origin) at 1 uM preincubated for 10 mins followed by substrate addition measured for 60 to 120 mins by HTRF assay relative to control; conditions: time 70-130 min
[14] = target: Epithelial discoidin domain-containing receptor 1 (Homo sapiens) (UniProt Q08345); experiment: Inhibition of DDR1 (unknown origin) at 1 uM preincubated for 10 mins followed by substrate addition measured for 60 to 120 mins by HTRF assay relative to control; conditions: time 70-130 min
[15] = target: Ephrin type-A receptor 3 (Homo sapiens) (UniProt P29320); experiment: Inhibition of EPHA3 (unknown origin) at 1 uM preincubated for 10 mins followed by substrate addition measured for 60 to 120 mins by HTRF assay relative to control; conditions: time 70-130 min
[16] = target: Insulin receptor (Homo sapiens) (UniProt P06213); experiment: Inhibition of INSR (unknown origin) at 1 uM preincubated for 10 mins followed by substrate addition measured for 60 to 120 mins by HTRF assay relative to control; conditions: time 70-130 min
A-375 = experiment: Antiproliferative activity against human A-375 cells incubated for 48 hrs by CCK8 assay; type: functional

Fibroblast growth factor receptor 1 (Homo sapiens), sequence (P11362 22-822 limits assumed): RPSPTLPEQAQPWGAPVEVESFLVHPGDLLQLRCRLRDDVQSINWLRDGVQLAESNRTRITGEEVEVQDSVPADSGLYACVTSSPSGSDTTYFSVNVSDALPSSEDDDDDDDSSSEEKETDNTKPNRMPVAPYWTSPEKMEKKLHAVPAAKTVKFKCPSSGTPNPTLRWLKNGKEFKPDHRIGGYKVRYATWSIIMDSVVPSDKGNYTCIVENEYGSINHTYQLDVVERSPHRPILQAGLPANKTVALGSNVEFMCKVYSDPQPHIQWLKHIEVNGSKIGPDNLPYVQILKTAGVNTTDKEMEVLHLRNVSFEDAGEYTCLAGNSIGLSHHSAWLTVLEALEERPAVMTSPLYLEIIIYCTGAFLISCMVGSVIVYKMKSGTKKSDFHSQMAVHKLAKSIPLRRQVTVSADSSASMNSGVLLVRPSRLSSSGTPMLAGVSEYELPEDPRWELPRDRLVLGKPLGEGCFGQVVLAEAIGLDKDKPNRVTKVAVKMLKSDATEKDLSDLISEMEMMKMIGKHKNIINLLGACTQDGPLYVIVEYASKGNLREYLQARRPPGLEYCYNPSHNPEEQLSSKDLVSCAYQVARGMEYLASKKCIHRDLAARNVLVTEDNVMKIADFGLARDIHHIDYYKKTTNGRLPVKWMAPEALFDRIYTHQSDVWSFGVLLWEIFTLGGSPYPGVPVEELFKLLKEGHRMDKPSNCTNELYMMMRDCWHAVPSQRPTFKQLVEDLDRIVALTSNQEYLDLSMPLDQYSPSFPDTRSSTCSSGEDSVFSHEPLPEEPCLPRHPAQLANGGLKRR
Ephrin type-A receptor 3 (Homo sapiens), sequence (P29320 whole entry): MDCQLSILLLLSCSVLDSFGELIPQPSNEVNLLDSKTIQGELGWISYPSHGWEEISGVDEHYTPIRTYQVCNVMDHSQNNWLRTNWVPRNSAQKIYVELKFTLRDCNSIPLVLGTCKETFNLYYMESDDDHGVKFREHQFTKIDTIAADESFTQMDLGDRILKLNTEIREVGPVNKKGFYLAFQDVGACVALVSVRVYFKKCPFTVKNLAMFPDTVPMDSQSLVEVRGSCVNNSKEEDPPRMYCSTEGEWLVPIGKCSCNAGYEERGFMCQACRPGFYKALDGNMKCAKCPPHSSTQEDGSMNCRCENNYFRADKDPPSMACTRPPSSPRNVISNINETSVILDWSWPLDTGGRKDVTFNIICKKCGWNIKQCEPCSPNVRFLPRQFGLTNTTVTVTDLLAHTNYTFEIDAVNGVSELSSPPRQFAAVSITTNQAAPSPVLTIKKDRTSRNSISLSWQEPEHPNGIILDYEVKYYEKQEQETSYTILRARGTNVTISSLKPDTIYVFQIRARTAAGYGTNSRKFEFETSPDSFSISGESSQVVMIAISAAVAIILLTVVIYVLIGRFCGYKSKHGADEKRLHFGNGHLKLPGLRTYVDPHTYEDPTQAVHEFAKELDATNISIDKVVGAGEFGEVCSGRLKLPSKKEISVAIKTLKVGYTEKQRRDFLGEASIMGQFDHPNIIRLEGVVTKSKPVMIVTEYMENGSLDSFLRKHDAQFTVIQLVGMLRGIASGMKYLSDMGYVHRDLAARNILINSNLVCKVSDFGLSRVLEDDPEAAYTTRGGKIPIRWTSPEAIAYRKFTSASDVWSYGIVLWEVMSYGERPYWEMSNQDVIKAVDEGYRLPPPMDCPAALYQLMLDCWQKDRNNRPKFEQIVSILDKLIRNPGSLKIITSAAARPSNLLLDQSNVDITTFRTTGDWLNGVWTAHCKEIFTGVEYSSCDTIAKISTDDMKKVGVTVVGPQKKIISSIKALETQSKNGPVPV
Hepatocyte growth factor receptor (Homo sapiens), sequence (P08581 whole entry): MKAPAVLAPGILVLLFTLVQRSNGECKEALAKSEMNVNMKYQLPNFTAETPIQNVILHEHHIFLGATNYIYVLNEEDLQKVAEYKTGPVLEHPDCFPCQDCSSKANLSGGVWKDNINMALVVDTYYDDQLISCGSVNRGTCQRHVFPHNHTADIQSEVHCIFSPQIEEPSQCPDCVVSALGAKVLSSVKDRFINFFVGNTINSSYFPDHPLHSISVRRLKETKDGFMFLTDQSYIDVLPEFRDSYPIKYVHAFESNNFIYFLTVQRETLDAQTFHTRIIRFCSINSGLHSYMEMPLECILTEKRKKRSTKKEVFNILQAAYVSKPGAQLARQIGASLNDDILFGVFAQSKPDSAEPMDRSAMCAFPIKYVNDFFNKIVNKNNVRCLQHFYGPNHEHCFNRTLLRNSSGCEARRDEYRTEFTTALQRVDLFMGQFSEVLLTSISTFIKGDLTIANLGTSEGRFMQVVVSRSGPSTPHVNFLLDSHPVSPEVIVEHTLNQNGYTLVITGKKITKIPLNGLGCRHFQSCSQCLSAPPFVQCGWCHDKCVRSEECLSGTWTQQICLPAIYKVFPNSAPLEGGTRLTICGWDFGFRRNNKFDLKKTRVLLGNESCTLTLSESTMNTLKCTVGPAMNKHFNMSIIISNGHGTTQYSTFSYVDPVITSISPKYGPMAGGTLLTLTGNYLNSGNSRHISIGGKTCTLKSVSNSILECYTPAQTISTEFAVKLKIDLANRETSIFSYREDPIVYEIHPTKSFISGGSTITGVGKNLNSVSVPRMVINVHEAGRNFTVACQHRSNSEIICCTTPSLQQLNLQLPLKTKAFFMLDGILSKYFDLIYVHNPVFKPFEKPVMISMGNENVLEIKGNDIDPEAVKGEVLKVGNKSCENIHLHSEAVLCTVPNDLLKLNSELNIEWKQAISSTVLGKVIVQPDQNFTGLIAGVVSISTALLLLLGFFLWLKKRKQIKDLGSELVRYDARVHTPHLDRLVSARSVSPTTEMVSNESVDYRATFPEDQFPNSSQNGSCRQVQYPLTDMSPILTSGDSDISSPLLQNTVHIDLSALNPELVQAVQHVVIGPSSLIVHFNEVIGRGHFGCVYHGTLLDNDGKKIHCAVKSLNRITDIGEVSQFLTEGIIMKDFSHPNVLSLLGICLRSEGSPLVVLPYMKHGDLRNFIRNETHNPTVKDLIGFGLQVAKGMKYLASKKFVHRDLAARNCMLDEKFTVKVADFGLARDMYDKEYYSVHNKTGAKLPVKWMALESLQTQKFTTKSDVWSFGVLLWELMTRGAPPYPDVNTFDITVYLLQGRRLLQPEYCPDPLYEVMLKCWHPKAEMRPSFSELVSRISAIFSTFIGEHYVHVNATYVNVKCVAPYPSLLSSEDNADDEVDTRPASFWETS
Tyrosine-protein kinase Fgr (Homo sapiens), sequence (P09769 2-529 limits assumed): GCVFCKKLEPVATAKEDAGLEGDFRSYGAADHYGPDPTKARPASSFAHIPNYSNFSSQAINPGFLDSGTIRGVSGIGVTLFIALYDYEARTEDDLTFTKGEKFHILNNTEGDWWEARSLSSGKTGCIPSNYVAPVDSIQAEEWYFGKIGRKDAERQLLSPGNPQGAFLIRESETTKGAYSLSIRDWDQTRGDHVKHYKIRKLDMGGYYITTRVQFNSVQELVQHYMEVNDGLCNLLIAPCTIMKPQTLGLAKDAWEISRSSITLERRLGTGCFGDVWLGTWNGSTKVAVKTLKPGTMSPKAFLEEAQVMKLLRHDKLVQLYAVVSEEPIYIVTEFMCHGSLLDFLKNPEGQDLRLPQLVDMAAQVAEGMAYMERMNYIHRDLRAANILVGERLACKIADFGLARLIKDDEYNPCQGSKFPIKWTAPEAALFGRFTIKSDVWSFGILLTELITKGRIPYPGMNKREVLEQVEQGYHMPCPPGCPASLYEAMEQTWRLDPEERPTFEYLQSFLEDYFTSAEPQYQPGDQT
Epithelial discoidin domain-containing receptor 1 (Homo sapiens), sequence (Q08345 whole entry, the tested form may be a part): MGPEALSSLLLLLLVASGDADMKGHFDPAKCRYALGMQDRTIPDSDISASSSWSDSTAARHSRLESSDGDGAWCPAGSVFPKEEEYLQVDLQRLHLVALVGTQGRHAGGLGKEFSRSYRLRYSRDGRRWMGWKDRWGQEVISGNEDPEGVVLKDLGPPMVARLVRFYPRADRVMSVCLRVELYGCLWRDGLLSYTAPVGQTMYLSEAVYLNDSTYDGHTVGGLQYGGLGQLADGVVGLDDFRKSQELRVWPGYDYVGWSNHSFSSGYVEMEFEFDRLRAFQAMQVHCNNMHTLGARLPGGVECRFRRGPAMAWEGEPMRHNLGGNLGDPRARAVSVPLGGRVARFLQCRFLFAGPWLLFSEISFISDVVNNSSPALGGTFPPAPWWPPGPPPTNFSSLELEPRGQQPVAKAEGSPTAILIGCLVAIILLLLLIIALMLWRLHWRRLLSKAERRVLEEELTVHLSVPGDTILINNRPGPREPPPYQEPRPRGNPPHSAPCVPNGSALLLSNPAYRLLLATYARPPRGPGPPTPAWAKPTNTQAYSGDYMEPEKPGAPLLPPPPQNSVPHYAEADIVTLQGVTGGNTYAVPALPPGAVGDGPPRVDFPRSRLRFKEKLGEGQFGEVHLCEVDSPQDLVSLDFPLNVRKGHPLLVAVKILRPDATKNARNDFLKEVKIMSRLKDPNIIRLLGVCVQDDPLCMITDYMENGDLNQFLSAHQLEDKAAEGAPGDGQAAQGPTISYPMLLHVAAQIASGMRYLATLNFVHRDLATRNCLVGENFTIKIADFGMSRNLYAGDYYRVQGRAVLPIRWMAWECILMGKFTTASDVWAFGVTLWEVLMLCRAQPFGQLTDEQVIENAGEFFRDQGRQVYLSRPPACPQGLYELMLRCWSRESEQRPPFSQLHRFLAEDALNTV

## NC(=O)c1cccc(-c2cnc3[nH]ccc3c2)c1
[1]
  inhibition: 0%
[2]
  inhibition: 1.96%
[3]
  inhibition: 28.1%
[4]
  Cmax: 231 ng/mL
[5]
  inhibition: 4.02%
[6]
  inhibition: 1%
[7]
  inhibition: 0%
[8]
  inhibition: 0%
[9]
  inhibition: 10.8%
[10]
  inhibition: 2.33%
[11]
  Cmax: 206 ng/mL
[12]
  inhibition: 0%
[13]
  inhibition: 14.9%
[14]
  inhibition: 20%
[15]
  inhibition: 0%
[16]
  inhibition: 7.74%
A-375
  GI50: > 50 µM
